Values of other authors as cited in patent US6399592B1, “Bishphosphonate/estrogen synergistic therapy for treating and preventing bone loss” (Merck & Co., Inc., priority 1992, dated 2002).

Experiments:
[1] = tested on: bone mineralization; settings: rats; long term
[2] = tested on: bone loss in ovaricetomized rats; settings: in combination with estrogen

SMILES	effects on bone mineralization [1]	effect on bone loss [2]
CC(O)(P(=O)([O-])O)P(=O)([O-])O.[Na+].[Na+] [etidronate, (1-hydroxyethylidene)bisphosphonic acid, disodium salt]	long term adverse effects on bone mineralization	
O=P([O-])(O)C(O)(Cc1cccnc1)P(=O)(O)O.[Na+] [risendronate, sodium trihydrogen [1-hydroxy-2-(3-pyridinyl)ethylidene]bisphosphonate]		positive effect on bone loss
